The text below walks through data of patent US9877980B2, “Method and composition for treatment or prevention of type 2 diabetes and hyperlipidemia” (Chun-Ching Shih, priority 2016, dated 2018).

The structures appear in SMILES notation. Marks after values point to notes of the source that are not given here.

What all share (type): in vivo
The subject of assay [1] is epididymal adipocyte of HFD mice. In words: Histology of epididymal white adipose tissue (adipocyte hypertrophy). The note with it: 4 weeks, three measurements. The protocol:
(§1) The following experiment was performed and approved by the guidelines of the Institutional Animal Care and Use Committee of Central Taiwan University of Science and Technology. The 4-week old male C57BL/6J mice (total amount n=63) were purchased from the National Laboratory Animal Breeding and Research Center (Taipei, Taiwan). After acclimatization for one week, all of the mice were divided randomly into the control (CON) group and the high-fat diet (HFD) group. For the following 12 weeks, the CON group (n=9) was kept on a low-fat diet (Diet 12450B, Research Diets, Inc., New Brunswick, N.J., USA), while the HFD group (n=54) was exposed to a high-fat diet (Diet 12451, Research Diets, New Brunswick, N.J., USA). The low-fat diet was composed of protein 20%, carbohydrate 70% and fat 10%, whereas the high-fat diet was composed of protein 20%, carbohydrate 35%, and fat 45% (of total energy, % kcal). After HFD exposure for 8 weeks, the HFD group was further randomly subdivided into 6 groups (n=9 per group) to receive different treatments by oral gavage once daily for four weeks and on HFD. […] The HF+B1, HF+B2, and […] are collectively termed BB-treated HFD groups in the following examples. The CON mice were administered vehicle. After dosing for 4 weeks, the mice were given no food at night and sacrificed after 12 h of fasting on the next day. All of the individual tissues were collected and weighed, and portions were instantly frozen using liquid nitrogen and kept at −80° C. for subsequent target gene analysis. Blood samples (0.8 mL) were collected for analysis of blood parameters.
(§2) Small pieces of epididymal white adipose tissue and liver tissue were fixed with formalin (200 g/kg) neutral buffered solution and embedded in paraffin. Sections of 8 μm […] were cut and stained with hematoxylin and eosin. For microscopic examination, a microscope (Leica, DM2500) was used, and the images were taken using a Leica Digital Camera (DFC-425-C).
Adipocyte hypertrophy, the pathological enlargement of adipocytes, is often found in subjects with type 2 diabetes and hyperlipidemia. To verify the therapeutic effect of the compound of formula I on adipocyte hypertrophy, morphology of the EWAT for the CON group and the BB-treated HFD groups was examined. Micrographs of the EWAT sections for each group were analyzed to determine the mean area of an epididymal adipocyte using the software ImageJ.

Assay [2] has as its system C57BL/6J mice on high-fat diet (HFD). In words: Blood parameters (glucose, insulin, TG, FFA, TC, leptin, adiponectin) in HFD mice. The note with it: 4 weeks. The protocol:
as §1, with “For the following 12 weeks, the CON group (n=9) was kept on a low-fat diet (Diet 12450B, Research Diets, Inc., New Brunswick, N.J., USA), while the HFD group (n=54) was exposed to a high-fat diet (Diet 12451, Research Diets, New Brunswick, N.J., USA). The low-fat diet was composed of protein 20%, carbohydrate 70% and fat 10%, whereas the high-fat diet was composed of protein 20%, carbohydrate 35%, and fat 45% (of total energy, % kcal).” left out
A portion of the blood samples obtained from the retro-orbital sinus of fasted mice were immediately used to measure blood glucose levels using Sidekick glucose analyzer (YSI 1500, YSI Incorporated, Yellow Springs, USA) according to the glucose oxidase method. Heparin (30 units/mL, Sigma) was added into other portions of the blood samples. […] Concentrations of plasma triglycerides (TG), total cholesterol (TC), and free fatty acids (FFA) were determined using commercial assay kits according to the manufacturer's instructions (Triglycerides-E test, Cholesterol-E test, and FFA-C test, Wako Pure Chemical, Osaka, Japan). Plasma insulin, leptin, and adiponectin levels were assessed using commercial assay kits according to the manufacturer's instructions (mouse insulin ELISA kit, Mercodia, Uppsala, Sweden; mouse leptin ELISA kit, Morinaga, Yokohama, Japan; Mouse Adiponectin ELISA kit, Crystal Chem International, Downers Grove, Ill., USA).

Another assay has as its system hepatocytes of HFD mice. In words: Histology of liver tissue (hepatocellular ballooning). The note with it: 4 weeks, grade 0 absence, 1 a few cells. The protocol: as §1, §2
Based on previous report, the designation of histological hepatocellular ballooning findings include grade 0 for absence of degeneration, grade 1 for degeneration in a few cells, and […] for degeneration in many cells.

The test system of assay [3] is C57BL/6J mice on high-fat diet (HFD). Briefly: Hepatic lipids in HFD mice. The note with it: 4 weeks. The protocol: as §1
For hepatic lipid extraction, a 0.375 g liver samples were homogenized with 1 mL distill water for 5 minutes. The dried pellet was finally resuspended in 0.5 mL ethanol and analyzed using a triglycerides kit as used for analyzing the serum lipids set forth above.

Assay [4] has the same test system. In words: Absolute tissue weight, body weight, weight gain and food intake in HFD mice. The note with it: 4 weeks. As for the experimental part:
as §1
Body weight of each mouse was monitored and measured daily at the same time throughout the experimentation. The difference in body weight between two consecutive days is defined as body weight gain. The food pellets for mice were weighed and put into the food container. Unconsumed pellets of high-fat diet were discarded each day and fresh pellets of high-fat diet were provided to ensure food quality throughout the experimentation. The high-fat food pellets were stored at 4° C.

For the compound `CC(C)OC(=O)C(C)(C)Oc1ccc(C(=O)c2ccc(Cl)cc2)cc1` [Feno, fenofibrate, reference compound], the “mean area of an epididymal adipocyte” value in assay [1] (250 mg/kg/day oral gavage) turned out to be 6982.3±309.7 μm^2. Moreover, in assay [2] (250 mg/kg/day oral gavage), the “Blood parameters Adiponectin” value is listed as 3.101 ± 0.028^f μg/mL, the “Blood parameters FFA” value is recorded as 0.91 ± 0.08^f mEq/L, the “Blood parameters Leptin” value was 1.206 ± 0.015^f ng/mL and the “Blood parameters TC” value is reported as 104.5 ± 5.5^f mg/dL. Moreover, the “hepatocellular ballooning mean score” value in the assay with hepatocytes of HFD mice (250 mg/kg/day oral gavage) is 0.6±0.1. In assay [3] (250 mg/kg/day oral gavage), the “Liver lipids Total lipid” value was 62.4 ± 3.9^f mg/g and the “Liver lipids Triacylglycerol” value is listed as 43.8 ± 5.6^f μmol/g. Moreover, in assay [4] (250 mg/kg/day oral gavage), the “Absolute tissue weight BAT” value is listed as 0.139 ± 0.011 g, the “Absolute tissue weight EWAT” value is listed as 0.763 ± 0.116^f g, the “Absolute tissue weight Liver” value is recorded as 1.669 ± 0.033^f g and the “Absolute tissue weight MWAT” value is reported as 0.264 ± 0.056 g. In addition, in assay [4] (250 mg/kg/day oral gavage), the “Absolute tissue weight RWAT” value is listed as 0.173 ± 0.032^f g, the “Absolute tissue weight Skeletal muscle” value stood at 0.990 ± 0.078 g, the “Absolute tissue weight Visceral fat” value is listed as 0.936 ± 0.147^f g and the Body weight was found to be 26.92 ± 0.96 g. Also, the Weight gain in assay [4] (250 mg/kg/day oral gavage) is reported as −0.58 ± 0.48^d g.

On to `CN(CCOc1ccc(CC2SC(=O)NC2=O)cc1)c1ccccn1` (centres unmarked) [Rosi, rosiglitazone, reference compound], for which the “mean area of an epididymal adipocyte” value in assay [1] (10 mg/kg/day oral gavage) stood at 5886.4 ± 58.7 μm^2. In addition, in assay [2] (10 mg/kg/day oral gavage), the “Blood parameters Adiponectin” value is reported as 3.058 ± 0.040^f μg/mL, the “Blood parameters FFA” value is listed as 1.08 ± 0.11^e mEq/L, the “Blood parameters Leptin” value was 1.661 ± 0.013^f ng/mL and the “Blood parameters TC” value was 111.5 ± 2.3^f mg/dL. For the same compound, in the assay on hepatocytes of HFD mice (10 mg/kg/day oral gavage), the “hepatocellular ballooning mean score” value is given as 0.8±0.2. Moreover, in assay [3] (10 mg/kg/day oral gavage), the “Liver lipids Total lipid” value was 70.1 ± 8.2^d mg/g and the “Liver lipids Triacylglycerol” value was 52.1 ± 7.7^d μmol/g. For the same compound, in assay [4] (10 mg/kg/day oral gavage), the “Absolute tissue weight BAT” value was 0.206 ± 0.012 g, the “Absolute tissue weight EWAT” value is on record as 0.919 ± 0.097^d g, the “Absolute tissue weight Liver” value came to 0.886 ± 0.031 g and the “Absolute tissue weight MWAT” value came out at 0.302 ± 0.029 g. In assay [4] (10 mg/kg/day oral gavage), the “Absolute tissue weight RWAT” value was 0.224 ± 0.032^f g, the “Absolute tissue weight Skeletal muscle” value was 0.960 ± 0.078 g, the “Absolute tissue weight Visceral fat” value is 1.143 ± 0.124^e g and the Body weight was determined as 28.61 ± 1.51 g. In assay [4] (10 mg/kg/day oral gavage), this compound returned a Food intake of 2.11 ± 0.06 g/day/mouse and a Weight gain of 0.38 ± 0.32 g.
